Reference: patent publication US8481567B2, “Sigma receptor compounds” (Laboratorios del Dr. Esteve, S.A., priority 2006, dated 2013)

Tests used:
[1] = molecular target: sigma-2 site (Homo sapiens, UniProt Q5BJF2); conditions: statement in words, background section; cited from earlier work
[2] = molecular target: sigma-1 site (Homo sapiens, UniProt Q99720); conditions: statement in words, background section; cited from earlier work
sigma-1 site, sequence (Q99720 whole entry): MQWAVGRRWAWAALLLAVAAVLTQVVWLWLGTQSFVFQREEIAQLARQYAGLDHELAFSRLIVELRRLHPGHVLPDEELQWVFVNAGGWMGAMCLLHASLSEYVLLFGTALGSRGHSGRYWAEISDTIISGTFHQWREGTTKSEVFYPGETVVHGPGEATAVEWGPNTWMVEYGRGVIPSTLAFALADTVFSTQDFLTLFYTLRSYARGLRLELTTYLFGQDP

sigma-2 site, sequence (Q5BJF2 whole entry): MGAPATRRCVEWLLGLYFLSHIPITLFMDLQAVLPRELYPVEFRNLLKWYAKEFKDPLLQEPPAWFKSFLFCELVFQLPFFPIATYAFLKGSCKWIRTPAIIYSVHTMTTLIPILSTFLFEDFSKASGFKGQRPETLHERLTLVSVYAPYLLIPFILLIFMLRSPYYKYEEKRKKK

| Molecule | melting point | affinity for the sigma-2 site [1] | affinity for the sigma-1 site [2] |
| --- | --- | --- | --- |
| Cn1ccc2c1CCCC2CCN1CCC(O)(c2ccc(Cl)cc2)CC1.O=C(O)C(=O)O (stereo not shown) | 154 to 155 °C | – | – |
| Cn1ccc2c1CCCC2CCN1CCC(c2ccccc2)CC1.O=C(O)C(=O)O (stereo not shown) | 86 to 90 °C | – | – |
| SKF 10047 | – | micromolar | nanomolar |
